Results: PubChem BioAssay (NCI)
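Results reflect a 48-hour exposure of cells in 96-well plates to compound at five concentrations. Abbreviation: GI50, concentration required for 50% inhibition of growth. The concentration for full growth arrest is given as TGI.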

How the values were obtained:
Test in all cases: NCI anticancer screen, dose series, 48 h
UACC-257 melanoma = system: UACC-257 melanoma
SK-OV-3 ovarian = system: SK-OV-3 ovarian
UO-31 renal = system: UO-31 renal
PC-3 prostate = system: PC-3 prostate
DU-145 prostate = system: DU-145 prostate
SW-620 colon = system: SW-620 colon
NCI/ADR-RES ovarian = system: NCI/ADR-RES ovarian
NCI-H23 lung = system: NCI-H23 lung
MOLT-4 leukemia = system: MOLT-4 leukemia
SNB-19 CNS = system: SNB-19 CNS
OVCAR-4 ovarian = system: OVCAR-4 ovarian
HT29 colon = system: HT29 colon
U251 CNS = system: U251 CNS
K-562 leukemia = system: K-562 leukemia
HCC-2998 colon = system: HCC-2998 colon
HCT-15 colon = system: HCT-15 colon
RXF 393 renal = system: RXF 393 renal
NCI-H226 lung = system: NCI-H226 lung
COLO 205 colon = system: COLO 205 colon
KM12 colon = system: KM12 colon
A549 NSCLC = system: A549 NSCLC
SN12C renal = system: SN12C renal
SF-295 CNS = system: SF-295 CNS
SF-539 CNS = system: SF-539 CNS
MCF7 breast = system: MCF7 breast
A498 renal = system: A498 renal
786-0 renal = system: 786-0 renal
NCI-H460 lung = system: NCI-H460 lung
UACC-62 melanoma = system: UACC-62 melanoma
T-47D breast = system: T-47D breast
MALME-3M melanoma = system: MALME-3M melanoma
SK-MEL-28 melanoma = system: SK-MEL-28 melanoma
TK-10 renal = system: TK-10 renal
SK-MEL-5 melanoma = system: SK-MEL-5 melanoma
RPMI-8226 leukemia = system: RPMI-8226 leukemia
HCT-116 colon = system: HCT-116 colon
HS 578T breast = system: HS 578T breast
HL-60(TB) leukemia = system: HL-60(TB) leukemia
CAKI-1 renal = system: CAKI-1 renal
SK-MEL-2 melanoma = system: SK-MEL-2 melanoma
NCI-H522 lung = system: NCI-H522 lung
MDA-MB-435 = system: MDA-MB-435
OVCAR-3 ovarian = system: OVCAR-3 ovarian
BT-549 breast = system: BT-549 breast
LOX IMVI melanoma = system: LOX IMVI melanoma
HOP-62 NSCLC = system: HOP-62 NSCLC
CCRF-CEM leukemia = system: CCRF-CEM leukemia
ACHN renal = system: ACHN renal
MDA-MB-231 breast = system: MDA-MB-231 breast
SNB-75 CNS = system: SNB-75 CNS
OVCAR-5 ovarian = system: OVCAR-5 ovarian
SF-268 CNS = system: SF-268 CNS
IGROV1 ovarian = system: IGROV1 ovarian
OVCAR-8 ovarian = system: OVCAR-8 ovarian
M14 melanoma = system: M14 melanoma

Cn1cc(C2=C(n3ccc4ccccc43)C(=O)NC2=O)c2ccccc21
GI50 (UACC-257 melanoma): > 25 µM
TGI (UACC-257 melanoma): > 25 µM
GI50 (SK-OV-3 ovarian): > 25 µM
TGI (SK-OV-3 ovarian): > 25 µM
GI50 (UO-31 renal): > 21.6 µM
TGI (UO-31 renal): > 25 µM
GI50 (PC-3 prostate): > 25 µM
TGI (PC-3 prostate): > 25 µM
GI50 (DU-145 prostate): > 25 µM
TGI (DU-145 prostate): > 25 µM
GI50 (SW-620 colon): > 25 µM
TGI (SW-620 colon): > 25 µM
GI50 (NCI/ADR-RES ovarian): > 25 µM
TGI (NCI/ADR-RES ovarian): > 25 µM
GI50 (NCI-H23 lung): > 25 µM
TGI (NCI-H23 lung): > 25 µM
GI50 (MOLT-4 leukemia): > 25 µM
TGI (MOLT-4 leukemia): > 25 µM
GI50 (SNB-19 CNS): > 25 µM
TGI (SNB-19 CNS): > 25 µM
GI50 (OVCAR-4 ovarian): > 25 µM
TGI (OVCAR-4 ovarian): > 25 µM
GI50 (HT29 colon): > 25 µM
TGI (HT29 colon): > 25 µM
GI50 (U251 CNS): > 25 µM
TGI (U251 CNS): > 25 µM
GI50 (K-562 leukemia): > 25 µM
TGI (K-562 leukemia): > 25 µM
GI50 (HCC-2998 colon): > 25 µM
TGI (HCC-2998 colon): > 25 µM
GI50 (HCT-15 colon): > 25 µM
TGI (HCT-15 colon): > 25 µM
GI50 (RXF 393 renal): > 25 µM
TGI (RXF 393 renal): > 25 µM
GI50 (NCI-H226 lung): > 25 µM
TGI (NCI-H226 lung): > 25 µM
GI50 (COLO 205 colon): > 25 µM
TGI (COLO 205 colon): > 25 µM
GI50 (KM12 colon): > 25 µM
TGI (KM12 colon): > 25 µM
GI50 (A549 NSCLC): > 25 µM
TGI (A549 NSCLC): > 25 µM
GI50 (SN12C renal): > 25 µM
TGI (SN12C renal): > 25 µM
GI50 (SF-295 CNS): > 25 µM
TGI (SF-295 CNS): > 25 µM
GI50 (SF-539 CNS): > 25 µM
TGI (SF-539 CNS): > 25 µM
GI50 (MCF7 breast): > 25 µM
TGI (MCF7 breast): > 25 µM
GI50 (A498 renal): > 25 µM
TGI (A498 renal): > 25 µM
GI50 (786-0 renal): > 25 µM
TGI (786-0 renal): > 25 µM
GI50 (NCI-H460 lung): > 25 µM
TGI (NCI-H460 lung): > 25 µM
GI50 (UACC-62 melanoma): > 25 µM
TGI (UACC-62 melanoma): > 25 µM
GI50 (T-47D breast): > 25 µM
TGI (T-47D breast): > 25 µM
GI50 (MALME-3M melanoma): > 25 µM
TGI (MALME-3M melanoma): > 25 µM
GI50 (SK-MEL-28 melanoma): > 25 µM
TGI (SK-MEL-28 melanoma): > 25 µM
GI50 (TK-10 renal): > 25 µM
TGI (TK-10 renal): > 25 µM
GI50 (SK-MEL-5 melanoma): > 25 µM
TGI (SK-MEL-5 melanoma): > 25 µM
GI50 (RPMI-8226 leukemia): > 25 µM
TGI (RPMI-8226 leukemia): > 25 µM
GI50 (HCT-116 colon): > 25 µM
TGI (HCT-116 colon): > 25 µM
GI50 (HS 578T breast): > 25 µM
TGI (HS 578T breast): > 25 µM
GI50 (HL-60(TB) leukemia): > 25 µM
TGI (HL-60(TB) leukemia): > 25 µM
GI50 (CAKI-1 renal): > 25 µM
TGI (CAKI-1 renal): > 25 µM
GI50 (SK-MEL-2 melanoma): > 25 µM
TGI (SK-MEL-2 melanoma): > 25 µM
GI50 (NCI-H522 lung): > 25 µM
TGI (NCI-H522 lung): > 25 µM
GI50 (MDA-MB-435): > 25 µM
TGI (MDA-MB-435): > 25 µM
GI50 (OVCAR-3 ovarian): > 25 µM
TGI (OVCAR-3 ovarian): > 25 µM
GI50 (BT-549 breast): > 25 µM
TGI (BT-549 breast): > 25 µM
GI50 (LOX IMVI melanoma): > 25 µM
TGI (LOX IMVI melanoma): > 25 µM
GI50 (HOP-62 NSCLC): > 25 µM
TGI (HOP-62 NSCLC): > 25 µM
GI50 (CCRF-CEM leukemia): > 25 µM
TGI (CCRF-CEM leukemia): > 25 µM
GI50 (ACHN renal): > 25 µM
TGI (ACHN renal): > 25 µM
GI50 (MDA-MB-231 breast): > 25 µM
TGI (MDA-MB-231 breast): > 25 µM
GI50 (SNB-75 CNS): > 9.34 µM
TGI (SNB-75 CNS): > 25 µM
GI50 (OVCAR-5 ovarian): > 25 µM
TGI (OVCAR-5 ovarian): > 25 µM
GI50 (SF-268 CNS): > 25 µM
TGI (SF-268 CNS): > 25 µM
GI50 (IGROV1 ovarian): > 25 µM
TGI (IGROV1 ovarian): > 25 µM
GI50 (OVCAR-8 ovarian): > 25 µM
TGI (OVCAR-8 ovarian): > 25 µM
GI50 (M14 melanoma): > 25 µM
TGI (M14 melanoma): > 25 µM
